Results reported in patent publication US6362212B1, “Oxime derivative and bactericide containing the same as active ingredient” (Shionogi & Company, Ltd., priority 1994, dated 2002).

Legend:
Format in all cases: in vivo
[1] = tested on: Pseudoperonospora cubensis; assay: Controlling effect on Pseudoperonospora cubensis by foliage application (pot experiment); settings: foliage spray on cucumber (var. TSUKUBASHIROIBO) first leaves, lesion area after 10 days in moist chamber at 20° C.
How it was run: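 Cucumber plants grown 2–3 weeks were sprayed on first leaves with compound (DMF solution diluted in water with spreader); 24 h later, Pseudoperonospora cubensis zoosporangia suspension dropped on leaves. Plants held in moist chamber at 20° C for 10 days; lesion area observed and percent control calculated.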

Botrytis cinerea = assay: Controlling effect on Botrytis cinerea by foliage application (pot experiment); settings: foliage spray on cucumber (cv. TSUKUBASHIROIBO) first leaves, mycelial disks, lesion diameter after 3 days in moist chamber at 20° C.
Description: The following Test Examples illustrate the effects of the fungicide of the present invention. (I. Controlling effects on various plant diseases by foliage application (pot experiment)) A test compound was dissolved in a small amount of N,N-dimethylformamide, and the solution was diluted to a given concentration with distilled water containing a spreader. Thus, a liquid sample to be tested was prepared. The liquid sample was sprayed to test plants, and 24 hours thereafter, pathogens were inoculated by the method described below. […] The seeds of cucumber ([…]) were sown in plastic cups (each 9 cm in diameter), followed by cultivation for 2 to 3 weeks. The test compound in the form of a solution or suspension was sprayed to the surface of their first leaves, and mycelial disks (4 mm φ) of Botrytis cinerea cultured on the potato sucrose agar medium were put on the leaf surfaces to inoculate. the cucumber seedlings with the pathogen. The plants were kept in a moist chamber at 20° C. for 3 days. The diameter of the lesions on the leaves was measured and the percent control was calculated.

Sphaerotheca fuliginea = assay: Controlling effect on Sphaerotheca fuliginea by foliage application (pot experiment); settings: foliage spray on cucumber (cv. TSUKUBASHIROIBO) first leaves, infected area after 10 days in greenhouse at 20° C.
How it was run: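 First leaves of cucumber seedlings, 2-3 weeks old, were sprayed with compound (DMF solution diluted in water with spreader). They were inoculated 24 h later with a Sphaerotheca fuliginea conidia spray and kept 10 days at 20° C in a greenhouse. Percent control was calculated from infected leaf area.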

[2] = tested on: Erysiphe graminis f. sp. tritici; assay: Controlling effect on Erysiphe graminis f. sp. tritici by foliage application (pot experiment); settings: foliage spray on wheat (cv. NORIN No. 61) seedlings, infected area after 10 days in greenhouse at 20° C.
How it was run: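 Wheat seedlings (cv. NORIN No. 61, 2-3 weeks old) sprayed with compound in DMF diluted in water with spreader, then inoculated with conidia 24 hours later. Kept in greenhouse at 20 °C for 10 days; percent control calculated from infected leaf area.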

Pyricularia oryzae = settings: foliage spray on rice seedlings (cv. […]), number of lesions six days after the inoculation
Puccinia coronata = assay: Controlling effect on Puccinia coronata by foliage application (pot experiment); settings: foliage spray on oat (cv. PC-38) seedlings, infected area after 1 day moist chamber and 8 days greenhouse at 20° C.
How it was run: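 Oat seedlings (cv. PC-38, 2–3 weeks old) were sprayed with compound in DMF diluted with spreader-containing water, then inoculated 24 h later with P. coronata spores diluted in talc. Plants were held 1 day in a moist chamber at 20° C, then 8 days in a greenhouse at 20° C; percent control came from infected leaf area.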

| Compound | Controlling effect on Pseudoperonospora cubensis by foliage application at 500 ppm (percent control) [1] [percent control] | Controlling effect on Botrytis cinerea by foliage application at 500 ppm (percent control) (Botrytis cinerea) | Controlling effect on Sphaerotheca fuliginea by foliage application at 500 ppm (percent control) (Sphaerotheca fuliginea) | Controlling effect on ErYsiphe graminis f. sp. tritici by foliage application at 500 ppm (percent control) [2] [percent control] | Controlling effect on PYricularia orYzae by foliage application at 500 ppm (percent control) (Pyricularia oryzae) | Controllng effect on Puccinia coronata by foliage application at 500 ppm (percent control) (Puccinia coronata) | pest or weed control at 500 ppm (Sphaerotheca fuliginea; Podosphaera fuliginea, in Cucumis sativus, foliar, 240 h, read-out: Controlling effect on Sphaerotheca fuliginea by foliage application at 500 ppm (percent control)) [%] | pest or weed control at 500 ppm ([2]; Blumeria graminis, foliar, 240 h, read-out: Controlling effect on ErYsiphe graminis f. sp. tritici by foliage application at 500 ppm (percent control)) [%] |
| --- | --- | --- | --- | --- | --- | --- | --- | --- |
| CON=C(c1ccon1)c1ccccc1COc1ccc(C)cc1 (mixture of isomers) [compound 314] | 100 | 70 | 100 | 70 | 90 | – | – | – |
| CON=C(c1ccccc1COc1cccc(Cl)c1)c1nccn1C (single isomer, unassigned) [106A] | 100 | 70 | 100 | 70 | 97 | – | – | – |
| CON=C(c1ccccc1COc1cccc(C(F)(F)F)c1)c1nccn1C (single isomer, unassigned) [122A] | 100 | 70 | 100 | 97 | 97 | – | – | – |
| CON=C(c1ccccc1COc1ccc(Cl)c(Cl)c1)c1nccn1C (single isomer, unassigned) [132A] | 100 | 70 | 100 | 70 | 70 | – | – | – |
| CON=C(c1ccccc1COc1ccc(Cl)cc1C)c1nccn1C (single isomer, unassigned) [141A] | 100 | 90 | 100 | 90 | 70 | – | – | – |
| CON=C(c1ccccc1COc1ccc(-c2ccccc2)cc1)c1nccn1C (single isomer, unassigned) [144A] | 100 | 70 | 100 | – | – | – | – | – |
| CON=C(c1cc(C)no1)c1ccccc1COc1ccccc1Cl (single isomer, unassigned) [605A] | 100 | 70 | 100 | 90 | 90 | – | – | – |
| CON=C(c1cc(C)no1)c1ccccc1COc1ccc(Cl)cc1 (single isomer, unassigned) [607A] | 97 | 70 | 90 | 90 | 90 | – | – | – |
| CON=C(c1ccccc1COc1ccccc1)n1ccnc1 [Compound No. 1] | – | 100 | 100 | 90 | 90 | 97 | – | – |
| CON=C(c1ccccc1COc1ccccc1Cl)n1ccnc1 [Compound No. 5] | – | 70 | 100 | 90 | 97 | 90 | – | – |
| CON=C(c1ccccc1COc1ccc(Cl)cc1)n1ccnc1 [Compound No. 7] | – | 100 | 100 | 100 | 97 | 97 | – | – |
| CCON=C(c1ccccc1COc1ccccc1)n1ccnc1 [Compound No. 61] | – | 100 | – | 97 | 97 | 97 | – | – |
| C=CCON=C(c1ccccc1COc1ccccc1)n1ccnc1 [Compound No. 81] | – | 90 | – | 97 | 97 | 97 | – | – |
| OC(c1ccc(Cl)cc1)(c1cncnc1)c1ccccc1Cl (stereo not shown) [Fenarimol, reference compound] | – | 97 | – | – | – | 97 | 97 | 97 |
| CON=C(c1ccccc1COc1ccccc1Cl)n1cncc1C [compound 205] | – | 70 | 100 | – | 90 | 70 | – | – |
| CON=C(c1nnco1)c1ccccc1COc1cccc(C)c1 [compound 713] | 100 | 70 | 100 | 90 | 97 | – | – | – |
| CON=C(c1nnco1)c1ccccc1COc1ccc(Cl)c(Cl)c1 [compound 732] | 100 | 70 | 100 | 70 | 70 | – | – | – |
